Five compounds from ChEMBL document CHEMBL1201862, “PubChem BioAssay data set” (2004) can be followed below.

Experiment [1] deals with T1, Voltage-dependent T-type calcium channel subunit alpha-1H (Homo sapiens, UniProt O95180). Kind of experiment: Cav3.2 T-type channel inhibitors, synthesized analogs, SAR follow-up, cell-based, synthetic library set 2, HEK293 HH8, Fluo-4 (AID 493023). It is filed as functional.
The target of experiment [2] is T1, Voltage-dependent T-type calcium channel subunit alpha-1H. As to the kind of experiment: Cav3.2 T-type channel blockers, cell-based, SynthLib3 library, HEK293 Cav3.2, fluorescence (AID 493041). It is filed as functional.
For experiment [3], the system named is BJ. Kind of experiment: cytotoxicity toward BJ-TERT fibroblasts, dose response, cell-based, RAS-independent, luminescence (AID 1933). In kind it is functional. The following applies: Homo sapiens.
The test system of experiment [4] is BJ. As to the kind of experiment: cells. It is filed as functional, cell-based. Particulars: Homo sapiens.
Experiment [5] concerns BJ. As to the kind of experiment: cytotoxicity toward BJ-TERT-LT-ST fibroblasts, dose response, cell-based, RAS-independent, luminescence (AID 1935).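 Also: BJ fibroblasts immortalized with TERT plus LT and ST oncogenes.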 In kind it is functional. Particulars: Homo sapiens.
The nature of experiment [6]: cytotoxicity toward DRD oncogenic fibroblasts, dose response, cell-based, non-viral oncogenic, luminescence (AID 1934). It is filed as functional. The following applies: Homo sapiens.
In experiment [7] the target is FAD-linked sulfhydryl oxidase ALR (Homo sapiens, UniProt P55789). As to the kind of experiment: inhibitors of human ALR sulfhydryl oxidase, dose response, biochemical, H2O2 detection, luminescence, cherry-pick (AID 493248).
FAD-linked sulfhydryl oxidase ALR, sequence (P55789 whole entry): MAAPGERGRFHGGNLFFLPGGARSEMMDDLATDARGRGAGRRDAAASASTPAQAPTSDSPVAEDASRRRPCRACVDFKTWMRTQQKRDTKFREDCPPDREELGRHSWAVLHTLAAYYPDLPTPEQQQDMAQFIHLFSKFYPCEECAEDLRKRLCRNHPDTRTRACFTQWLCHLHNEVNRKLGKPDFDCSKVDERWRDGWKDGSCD
Experiment [8] deals with DNA damage-inducible transcript 3 protein (Mus musculus, UniProt P35639). It is filed as functional, Cricetulus griseus.
DNA damage-inducible transcript 3 protein, sequence (P35639 whole entry): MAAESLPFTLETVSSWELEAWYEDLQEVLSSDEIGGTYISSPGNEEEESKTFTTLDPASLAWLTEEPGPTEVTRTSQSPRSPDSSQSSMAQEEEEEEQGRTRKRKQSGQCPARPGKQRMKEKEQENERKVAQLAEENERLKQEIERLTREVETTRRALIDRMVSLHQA
Experiment [9] concerns the target Lysine-specific demethylase 4A (Homo sapiens, UniProt O75164). Kind of experiment: JMJD2A histone demethylase inhibitors, dose response, selectivity assay for GASC-1 inhibitor project, biochemical, DELFIA europium, cherry-picked samples (AID 488840).
Experiment [10] has as its target T2, Nucleotide-binding oligomerization domain-containing protein 1 (Homo sapiens, UniProt Q9Y239).
T2 sequence (Q9Y239 whole entry): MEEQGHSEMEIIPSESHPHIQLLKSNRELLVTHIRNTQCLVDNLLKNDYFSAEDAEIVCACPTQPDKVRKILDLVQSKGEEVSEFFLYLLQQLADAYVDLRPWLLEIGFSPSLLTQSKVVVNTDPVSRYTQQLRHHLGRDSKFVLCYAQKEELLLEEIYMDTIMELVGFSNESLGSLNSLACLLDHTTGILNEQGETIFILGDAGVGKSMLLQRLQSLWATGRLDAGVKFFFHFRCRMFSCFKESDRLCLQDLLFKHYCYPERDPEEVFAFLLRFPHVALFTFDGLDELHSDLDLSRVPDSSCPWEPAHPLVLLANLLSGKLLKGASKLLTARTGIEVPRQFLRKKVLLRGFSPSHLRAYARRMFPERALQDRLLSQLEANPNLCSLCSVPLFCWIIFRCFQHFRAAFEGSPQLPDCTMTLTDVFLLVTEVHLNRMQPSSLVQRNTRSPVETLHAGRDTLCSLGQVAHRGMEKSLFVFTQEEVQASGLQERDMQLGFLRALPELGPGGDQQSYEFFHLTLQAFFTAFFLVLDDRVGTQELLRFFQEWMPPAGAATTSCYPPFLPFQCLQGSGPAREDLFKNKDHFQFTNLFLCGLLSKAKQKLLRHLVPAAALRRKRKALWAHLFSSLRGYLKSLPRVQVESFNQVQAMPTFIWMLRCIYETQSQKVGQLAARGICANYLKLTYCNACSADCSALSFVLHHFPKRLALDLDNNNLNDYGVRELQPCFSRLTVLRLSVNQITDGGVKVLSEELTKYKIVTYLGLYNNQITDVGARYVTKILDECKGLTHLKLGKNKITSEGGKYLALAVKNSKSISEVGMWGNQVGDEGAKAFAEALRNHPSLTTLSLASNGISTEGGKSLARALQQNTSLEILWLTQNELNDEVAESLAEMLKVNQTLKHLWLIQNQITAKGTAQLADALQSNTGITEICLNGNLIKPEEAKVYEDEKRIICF
Kind of experiment: SAR analysis of compounds that inhibit NOD1 - Set 3. [Related pubchem assays (depositor defined):AID1566, AID1575, AID1578, AID1849, AID1852, AID2333, AID2335, AID2466]. In kind it is functional.

The target of experiment [11] is Tumor necrosis factor (Homo sapiens, UniProt P01375). As to the kind of experiment: TNFa-triggered NF-kB activation inhibitors, SAR follow-up, cell-based, set 3 (AID 2801). In kind it is functional.
Tumor necrosis factor, sequence (P01375 whole entry): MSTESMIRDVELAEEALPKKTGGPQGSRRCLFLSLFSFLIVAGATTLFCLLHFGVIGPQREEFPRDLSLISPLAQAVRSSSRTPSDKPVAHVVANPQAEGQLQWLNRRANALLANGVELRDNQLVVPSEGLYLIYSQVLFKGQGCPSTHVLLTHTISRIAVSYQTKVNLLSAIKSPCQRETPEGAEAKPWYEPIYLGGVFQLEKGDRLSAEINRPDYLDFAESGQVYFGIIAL
Experiment [12] deals with HEK293. As to the kind of experiment: SAR analysis of compounds that are cytotoxic to HEK293 - Set 3. [Related pubchem assays (depositor defined):AID1575, AID1578, AID1848, AID1849, AID2001, AID2333, AID2334, AID2335, AID2337, AID2469]. The following applies: Homo sapiens. It is filed as functional, cell-based.
Experiment [13] has as its target Nucleotide-binding oligomerization domain-containing protein 2 (Homo sapiens, UniProt Q9HC29). As to the kind of experiment: NOD2 signaling inhibitors, analog potency, SAR follow-up, cell-based, set 3 (AID 2799). In kind it is functional.

Structures are written as SMILES. Activity calls are given as the source filed them.

T1 sequence (O95180 whole entry): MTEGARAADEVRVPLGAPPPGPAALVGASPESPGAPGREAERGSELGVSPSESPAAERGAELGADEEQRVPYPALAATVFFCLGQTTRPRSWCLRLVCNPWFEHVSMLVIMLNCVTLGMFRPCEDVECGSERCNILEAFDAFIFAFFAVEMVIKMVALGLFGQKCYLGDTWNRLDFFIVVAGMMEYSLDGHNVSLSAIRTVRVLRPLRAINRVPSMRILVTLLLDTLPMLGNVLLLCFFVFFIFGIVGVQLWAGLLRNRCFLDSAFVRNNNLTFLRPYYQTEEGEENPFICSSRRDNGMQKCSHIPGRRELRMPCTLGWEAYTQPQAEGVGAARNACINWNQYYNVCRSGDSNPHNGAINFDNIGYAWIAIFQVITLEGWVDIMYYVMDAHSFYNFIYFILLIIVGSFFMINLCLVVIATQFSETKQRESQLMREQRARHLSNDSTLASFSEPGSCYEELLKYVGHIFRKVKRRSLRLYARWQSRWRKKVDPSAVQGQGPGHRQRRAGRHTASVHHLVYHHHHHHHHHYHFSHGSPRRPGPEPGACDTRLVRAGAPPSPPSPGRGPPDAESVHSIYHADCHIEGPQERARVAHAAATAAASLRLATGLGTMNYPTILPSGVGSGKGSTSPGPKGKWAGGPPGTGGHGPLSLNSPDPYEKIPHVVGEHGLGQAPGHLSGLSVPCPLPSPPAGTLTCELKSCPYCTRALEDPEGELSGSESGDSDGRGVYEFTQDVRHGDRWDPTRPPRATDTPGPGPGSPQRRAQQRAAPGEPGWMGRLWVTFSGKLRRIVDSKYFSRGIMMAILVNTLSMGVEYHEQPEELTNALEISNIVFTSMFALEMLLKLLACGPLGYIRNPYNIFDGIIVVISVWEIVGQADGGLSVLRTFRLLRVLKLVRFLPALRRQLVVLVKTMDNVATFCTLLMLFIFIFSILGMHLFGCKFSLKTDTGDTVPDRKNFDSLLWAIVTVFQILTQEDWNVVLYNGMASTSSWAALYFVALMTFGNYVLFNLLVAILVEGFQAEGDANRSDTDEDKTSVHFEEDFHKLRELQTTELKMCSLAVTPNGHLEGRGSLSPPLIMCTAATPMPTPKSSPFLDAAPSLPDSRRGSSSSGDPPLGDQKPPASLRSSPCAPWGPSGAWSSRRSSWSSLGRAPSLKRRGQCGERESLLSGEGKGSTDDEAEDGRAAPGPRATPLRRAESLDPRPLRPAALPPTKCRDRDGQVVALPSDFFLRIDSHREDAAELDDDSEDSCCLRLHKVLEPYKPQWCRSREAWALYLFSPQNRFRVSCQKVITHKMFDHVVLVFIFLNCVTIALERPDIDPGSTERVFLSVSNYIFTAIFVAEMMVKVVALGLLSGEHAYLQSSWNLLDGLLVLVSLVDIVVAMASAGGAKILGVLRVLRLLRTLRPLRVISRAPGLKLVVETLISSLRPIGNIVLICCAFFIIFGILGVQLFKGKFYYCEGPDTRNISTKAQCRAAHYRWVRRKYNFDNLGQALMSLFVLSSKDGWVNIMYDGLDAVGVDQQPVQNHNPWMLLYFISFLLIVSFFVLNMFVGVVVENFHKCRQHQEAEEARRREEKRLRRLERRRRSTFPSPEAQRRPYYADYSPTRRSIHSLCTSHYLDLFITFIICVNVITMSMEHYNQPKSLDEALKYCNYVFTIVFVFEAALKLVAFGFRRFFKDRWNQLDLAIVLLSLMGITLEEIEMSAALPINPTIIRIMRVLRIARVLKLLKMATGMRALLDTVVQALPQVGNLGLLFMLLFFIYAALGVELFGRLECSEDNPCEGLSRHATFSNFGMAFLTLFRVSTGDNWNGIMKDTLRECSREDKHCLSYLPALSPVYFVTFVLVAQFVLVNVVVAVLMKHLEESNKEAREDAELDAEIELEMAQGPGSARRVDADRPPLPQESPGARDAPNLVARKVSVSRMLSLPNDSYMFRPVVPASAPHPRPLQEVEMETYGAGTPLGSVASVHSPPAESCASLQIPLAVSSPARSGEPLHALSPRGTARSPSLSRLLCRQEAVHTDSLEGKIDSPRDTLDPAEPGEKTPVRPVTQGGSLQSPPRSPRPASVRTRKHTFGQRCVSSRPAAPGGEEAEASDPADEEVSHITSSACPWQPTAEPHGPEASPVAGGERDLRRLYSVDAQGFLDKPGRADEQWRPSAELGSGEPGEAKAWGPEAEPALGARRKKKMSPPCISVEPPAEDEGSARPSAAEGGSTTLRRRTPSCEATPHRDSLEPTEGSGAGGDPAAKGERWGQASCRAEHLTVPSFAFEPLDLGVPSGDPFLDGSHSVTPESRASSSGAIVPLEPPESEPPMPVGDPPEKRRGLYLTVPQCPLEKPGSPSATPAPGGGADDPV
Nucleotide-binding oligomerization domain-containing protein 2, sequence (Q9HC29 whole entry, the tested form may be a part): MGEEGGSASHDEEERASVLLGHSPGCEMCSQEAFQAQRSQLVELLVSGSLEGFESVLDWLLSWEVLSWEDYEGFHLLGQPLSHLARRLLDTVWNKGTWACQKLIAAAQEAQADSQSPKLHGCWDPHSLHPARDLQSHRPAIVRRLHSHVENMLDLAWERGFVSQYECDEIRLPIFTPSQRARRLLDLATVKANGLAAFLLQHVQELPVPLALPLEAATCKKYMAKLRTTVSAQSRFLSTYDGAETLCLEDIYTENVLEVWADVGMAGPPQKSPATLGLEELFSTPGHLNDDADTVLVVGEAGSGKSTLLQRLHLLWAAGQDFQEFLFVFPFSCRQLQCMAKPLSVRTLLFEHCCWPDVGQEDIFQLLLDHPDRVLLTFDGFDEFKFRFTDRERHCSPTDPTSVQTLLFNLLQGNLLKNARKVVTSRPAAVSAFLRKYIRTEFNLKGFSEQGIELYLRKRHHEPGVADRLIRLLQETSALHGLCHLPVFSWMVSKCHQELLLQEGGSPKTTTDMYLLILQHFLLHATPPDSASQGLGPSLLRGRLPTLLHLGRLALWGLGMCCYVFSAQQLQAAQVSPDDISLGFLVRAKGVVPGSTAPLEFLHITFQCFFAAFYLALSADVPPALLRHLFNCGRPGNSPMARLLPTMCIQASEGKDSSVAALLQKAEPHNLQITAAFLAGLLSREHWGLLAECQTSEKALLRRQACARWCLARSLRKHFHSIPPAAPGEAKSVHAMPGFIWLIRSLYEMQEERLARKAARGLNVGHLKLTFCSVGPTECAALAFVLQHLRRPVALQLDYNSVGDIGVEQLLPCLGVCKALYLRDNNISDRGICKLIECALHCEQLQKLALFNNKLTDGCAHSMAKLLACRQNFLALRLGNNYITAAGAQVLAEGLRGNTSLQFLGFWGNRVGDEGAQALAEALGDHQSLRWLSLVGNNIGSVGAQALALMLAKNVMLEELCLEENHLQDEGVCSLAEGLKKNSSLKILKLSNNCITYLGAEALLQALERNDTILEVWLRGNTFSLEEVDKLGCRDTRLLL
Lysine-specific demethylase 4A, sequence (O75164 whole entry, the tested form may be a part): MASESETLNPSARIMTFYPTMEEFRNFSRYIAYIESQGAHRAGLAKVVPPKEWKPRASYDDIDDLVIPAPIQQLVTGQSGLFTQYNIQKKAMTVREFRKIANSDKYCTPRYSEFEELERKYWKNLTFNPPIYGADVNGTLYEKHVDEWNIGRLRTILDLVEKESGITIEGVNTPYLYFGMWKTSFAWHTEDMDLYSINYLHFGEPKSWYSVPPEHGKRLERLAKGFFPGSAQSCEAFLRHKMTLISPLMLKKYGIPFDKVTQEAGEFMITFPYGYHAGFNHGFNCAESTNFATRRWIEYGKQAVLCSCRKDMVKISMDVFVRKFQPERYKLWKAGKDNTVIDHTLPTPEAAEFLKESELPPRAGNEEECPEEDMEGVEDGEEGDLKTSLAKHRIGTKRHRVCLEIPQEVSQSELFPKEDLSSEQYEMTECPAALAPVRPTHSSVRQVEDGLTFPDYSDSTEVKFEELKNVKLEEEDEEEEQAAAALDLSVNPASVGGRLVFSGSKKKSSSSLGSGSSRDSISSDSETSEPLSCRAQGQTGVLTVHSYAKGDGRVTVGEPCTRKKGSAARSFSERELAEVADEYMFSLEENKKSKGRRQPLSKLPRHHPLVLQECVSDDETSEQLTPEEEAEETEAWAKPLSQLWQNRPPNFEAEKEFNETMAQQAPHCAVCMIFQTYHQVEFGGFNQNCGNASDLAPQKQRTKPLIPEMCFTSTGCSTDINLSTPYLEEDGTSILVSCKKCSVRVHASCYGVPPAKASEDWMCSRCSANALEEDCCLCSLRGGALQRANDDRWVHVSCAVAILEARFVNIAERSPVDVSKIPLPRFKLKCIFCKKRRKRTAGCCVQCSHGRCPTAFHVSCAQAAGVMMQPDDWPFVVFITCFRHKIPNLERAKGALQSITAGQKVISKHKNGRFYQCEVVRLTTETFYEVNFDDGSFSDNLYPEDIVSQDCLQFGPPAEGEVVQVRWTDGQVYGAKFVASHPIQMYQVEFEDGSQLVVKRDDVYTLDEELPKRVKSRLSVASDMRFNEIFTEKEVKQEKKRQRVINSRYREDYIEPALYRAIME

By EC50 is commonly meant the concentration that produces a half-maximal response. Consider `O=C(COc1ccc(F)cc1Cl)N[C@@H]1CCCN(Cc2ccccc2)C1`, for which, in [1], the EC50 was 10 µM (active).

`CCC(C)CN1CCC[C@H](NC(=O)COc2ccc(F)c(Cl)c2)C1` (stereo partly drawn): the EC50 in experiment [2] was 10 µM (active).

The term AC50 denotes the concentration giving half of the maximal activity seen. For `COc1ccc(N/N=C(\C=N\O)C(=O)c2ccc(OC)cc2)cc1`, the EC50 in experiment [3] is 1.56 µM (inconclusive); in [4] it was 49 µM (active); in experiment [5], 2.41 µM (inconclusive); in [6] it was 1.15 µM (active). Besides, in experiment [7], the AC50 was 0.009 µM (active). Moreover, the “Absolute IC50 (CHOP)” value in [8] turned out to be 10 µM.

Regarding `COc1ccc(N2CCN(C(=O)CSc3nnc(-c4cccnc4)n3-c3ccccc3)CC2)cc1`, the AC50 in experiment [9] was > 60 µM (inactive).

A word on the IC50: it is the point on the concentration scale where inhibition reaches its midpoint. As to `CC(C)C(=O)N(C)C(c1ccccc1)c1c[nH]c2ccccc12` (stereo not drawn), the IC50 in experiment [10], in experiment [11], in experiment [12] and in experiment [13] was > 20 µM (inactive) throughout.
